Results as given in patent US10906946B2, “Thrombin inhibitors” (priority 2015, dated 2021).
Like-named read-outs stand apart in the source and are kept apart here. Peptide text beside a SMILES is read from it.

Key:
human α-thrombin = biological target: T1, human α-thrombin (Homo sapiens, UniProt P00734); experiment: Thrombin amidolytic activity assay with chromogenic substrate S2238; assay type: biochemical
T1 construct: residues in the termini of the light chain; purchased Chemo-Sero-Therapeutic Research Institute (Kaketsuken, Japan), as a gift, not bought
In short: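 Run in 50 mM Tris pH 7.4, 100 mM NaCl, 1 mg/ml BSA; p-nitroaniline release from S2238 monitored at 405 nm for 10 min. IC50 and Hill coefficients from dose-response fits; inhibition constants from varied S2238 concentrations using Morrison tight-binding equation.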

thrombin = biological target: T2, thrombin (Homo sapiens, UniProt P00734); experiment: Inhibition of thrombin fibrinogenolytic activity (fibrinogen clotting time); assay type: biochemical
T2 construct: residues in the termini of the light chain; and in the autolysis loop and C-terminus of the heavy chain; purchased Chemo-Sero-Therapeutic Research Institute (Kaketsuken, Japan), as a gift, not bought
Experimental: Thrombin amidolytic activity assays for all peptides were performed in 96-wells microtiter plates in 50 mM Tris buffer (pH 7.4) containing 100 mM NaCl and 1 mg/ml bovine serum albumin. Typically, 100 μl of peptide and 100 μl of thrombin were pre-incubated for different durations before 100 μl of S2238 was added to the reaction wells. The rates of formation of p-nitroaniline were followed by measuring the absorbance at 405 nm for 10 min with a Tecan InfinitePro M200 microplate reader from Tecan (Männedorf, Switzerland). Dose-response curves were fitted using the GraphPad Prizm software (San Diego, Calif., USA) to calculate IC50 values and Hill coefficients. To measure the inhibitory constants, different concentrations of S2238 were used and the residual velocities were determined using the Morrison's tight binding equation. Inhibition of thrombin fibrinogenolytic activity of peptides were tested by measuring absorbance at 650 nm using a Sunrise microplate reader from Tecan (Männedorf, Switzerland) as described previously [Koh C Y, et al., J Biol Chem 282: 29101-13 (2007)]. The selectivity of avathrin was examined against 13 serine proteases (FIG. 5). Effects of avathrin on the amidolytic activities of these serine proteases were determined using respective chromogenic substrates. Cleavage of avathrin by thrombin. Avathrin (150 μM) was incubated with thrombin (5 μM), in 50 mM Tris buffer (pH 7.4) containing 150 mM NaCl and 1 mg/ml BSA. After different incubation times, reactions were quenched with 1% TFA (pH 1.8) and loaded onto a Jupiter Proteo column (4 μm, 90 Å, 100×1.0 mm) attached to a Dionex nano-HPLC system from Thermo Fisher Scientific (Waltham, Mass., USA) and eluted using an acetonitrile gradient with 0.05% TFA and 99.95% MilliQ water as eluent A and 0.05% TFA, 19.95% MilliQ water and 80% ACN as eluent B. Masses of all peaks were measured to identify cleavage products, which were subsequently quantified by integrating the peaks and calculating the area under the curves. To measure the effect of different pre-incubation times on the thrombin inhibitory activity, amidolytic assays were performed for various incubation times (up to 36 h).

blood = experiment: Anti-coagulation effect of peptides in blood tubes (visual clot formation); design: species or system human (healthy volunteers); details: room temperature
Experimental: (§1) Individual peptides are dissolved in phosphate buffered saline to prepare 10× peptide solutions (ie. concentrations of peptides are 10 times higher than the final concentrations at which they are to be tested). 0.3 ml of the 10× peptide solutions are placed in blood tubes without any additives. Blood was drawn from healthy volunteers using syringes and immediately transferred to a 50 ml conical centrifuge tube (Falcon tube) before pipetting 2.7 ml of the blood into blood tubes with peptide solutions. Final concentrations of peptides are as stated in Table 5 and 6.
Blood tubes with various peptides at different concentrations were left standing at room temperature until tested at designated times. At different time points, tubes were inverted several times and visually inspected for insoluble materials as indications of clot formation.

[1] = tested on: platelets (ADP-induced platelet aggregation); experiment: Preservation of platelet function in blood tubes (Multiplate, ADP-induced platelet aggregation); assay type: cell-based, human (healthy volunteers); details: ADP agonist
Experimental: as §1
Blood tubes with various peptides at different concentrations were left standing at room temperature until tested at designated times. At different time points, tubes were inverted several times and blood samples were taken out for platelet aggregation tests using a Multiplate® Platelet aggregometer with adenosine diphosphate (ADP) as agonist according to manufacturer's recommended protocols.

[2] = inhibitory constant Ki for thrombin, thrombin 0.81 nM, various S2238 concentrations
[3] = final concentration 75 micromolar
[4] = final concentration 150 micromolar
[5] = final concentration 300 micromolar

SMILES	times higher affinity for thrombin than Bivalirudin (human α-thrombin)	Ki (human α-thrombin; [2]) [nM]	effect on fibrinogen clotting time / thrombin fibrinogenolytic activity (thrombin)	Time to observe clot formation (blood; [3]) [h]	Time to observe clot formation (blood; [4]) [h]	Time to observe clot formation (blood; [5]) [h]	Multiplate AUC (U) ([1]; 1.5 h, peptide 150 μM)	Multiplate AUC (U) ([1]; 1.5 h, peptide 300 μM)	Multiplate AUC (U) ([1]; 4 h, peptide 150 μM)	Multiplate AUC (U) ([1]; 4 h, peptide 300 μM)	Multiplate AUC (U) ([1]; 24 h, peptide 150 μM)	Multiplate AUC (U) ([1]; 24 h, peptide 300 μM)	Multiplate AUC (U) ([1]; 48 h, peptide 300 μM)	also measured
CC[C@H](C)[C@H](NC(=O)[C@H](CCCCN)NC(=O)[C@@H]1CCCN1C(=O)[C@@H](NC(=O)[C@H](C)NC(=O)[C@@H](NC(=O)[C@H](CCC(N)=O)NC(=O)[C@H](Cc1c[nH]cn1)NC(=O)CNC(=O)CNC(=O)[C@@H](N)CO)[C@@H](C)O)C(C)C)C(=O)N[C@@H](CO)C(=O)N[C@@H](CCCCN)C(=O)N[C@@H](CCC(N)=O)C(=O)NCC(=O)N[C@@H](CC(C)C)C(=O)NCC(=O)NCC(=O)N[C@@H](CC(=O)O)C(=O)N[C@@H](Cc1ccccc1)C(=O)N[C@@H](CCC(=O)O)C(=O)N[C@@H](CCC(=O)O)C(=O)N[C@H](C(=O)N1CCC[C@H]1C(=O)N[C@@H](CO)C(=O)N[C@@H](CC(=O)O)C(=O)N[C@@H](CCC(=O)O)C(=O)N[C@H](C(=O)N[C@H](C(=O)N[C@@H](CCC(=O)O)C(=O)O)[C@@H](C)CC)[C@@H](C)CC)[C@@H](C)CC [Avathrin] (H-SGGHQTAVPKISKQGLGGDFEEIPSDEIIE-OH; N-terminus and C-terminus assumed)	approximately 5 times	0.5453 ± 0.0031	prolonged fibrinogen clotting time in a dose-dependent manner	42 to 52	52 to 66	52 to 66	60.9	62.4	53.6	46.8	55.8	43.3	3.5	Hill slope of thrombin amidolytic inhibition (human α-thrombin; 0 min pre-incubation where stated): 0.92±0.01; Hill slope of thrombin amidolytic inhibition, 10 min pre-incubation (human α-thrombin; 10 min pre-incubation): 0.94±0.02; IC50 (human α-thrombin; IC50(nM), Table 2): 6.95 ± 0.42 nM; Hill Slope (human α-thrombin; Table 2): 0.92 ± 0.02; thrombin amidolytic activity inhibited after prolonged incubation (human α-thrombin; at 24 h, same avathrin:thrombin ratio as cleavage experiments): > 45%; inhibition at 0.01 µM (human α-thrombin; read-out: inhibition of thrombin activity): 65%; inhibition at 0.001 µM (human α-thrombin; read-out: inhibition of thrombin amidolytic activity at equimolar concentrations): 14.3 ± 1.39%; effect on fibrinogen clotting time / thrombin fibrinogenolytic activity (thrombin; listed as avathrin): prolonged fibrinogen clotting times in a dose dependent manner
CC[C@H](C)[C@H](NC(=O)[C@H](C)NC(=O)[C@H](CC(=O)O)NC(=O)[C@H](CC(=O)O)NC(=O)[C@@H]1CCCN1C(=O)[C@@H](NC(=O)[C@H](CCC(=O)O)NC(=O)[C@H](CCC(=O)O)NC(=O)[C@H](Cc1ccccc1)NC(=O)[C@H](CC(=O)O)NC(=O)CNC(=O)[C@@H]1CCCN1C(=O)[C@@H]1CCCN1C(=O)[C@H](C)NC(=O)[C@@H](NC(=O)[C@H](CO)NC(=O)[C@H](Cc1ccc(O)cc1)NC(=O)[C@H](CCSC)NC(=O)[C@H](CCCCN)NC(=O)[C@@H]1CCCN1C(=O)[C@@H](NC(=O)[C@H](C)NC(=O)[C@H](CCCNC(=N)N)NC(=O)[C@@H](NC(=O)[C@H](C)NC(=O)[C@H](CCC(=O)O)NC(=O)[C@H](CC(=O)O)NC(=O)[C@@H](N)CO)C(C)C)[C@@H](C)CC)[C@@H](C)O)[C@@H](C)CC)C(=O)N[C@@H](CCC(=O)O)C(=O)N[C@@H](CCC(=O)O)C(=O)O [Ultravariegin] (H-SDEAVRAIPKMYSTAPPGDFEEIPDDAIEE-OH; N-terminus and C-terminus assumed)	~650 times	0.0015	prolonged fibrinogen clotting times in a dose dependent manner	91 to 101	101 to 139	101 to 139	55.7	66.3	52	46.1	43.1	39.5	25.4	fold more potent than variegin (Ki) (human α-thrombin): more than 70 fold; fold stronger affinity compared to avathrin and variegin (human α-thrombin): > 200 fold; Ki (human α-thrombin; Affinity (nM), Table 4, Ki values): 0.001 nM; IC50 (human α-thrombin; IC50 (nM), Table 5): 0.4 ± 0.09 nM; IC50 (human α-thrombin; IC50 of inhibition of thrombin amidolytic activity, thrombin 0.81 nM, S2238 100 μM, without pre-incubation (0 min) where stated): 0.26 ± 0.008 nM; Ki (human α-thrombin; Ki (pM), Table 5): 0.0044 ± 0.00035 nM; Multiplate AUC (U) ([1]; 48 h, peptide 150 μM): 7.4 U; Multiplate AUC (U) ([1]; 72 h, peptide 150 μM): 9.6 U; Multiplate AUC (U) ([1]; 72 h, peptide 300 μM): 15.4 U
